Measured values from US10442807B2, “Aryl substituted bicyclic compounds as herbicides” (FMC Corporation, priority 2015, dated 2019).

Columns and labels:
Type in all cases: in vivo
[1] = test system: ragweed (common ragweed, Ambrosia elation); assay: Test A preemergence, directed soil spray, visual injury rating; conditions: approx. 10 d, 0 = no effect, 100 = complete control
From the text: (§1) Seeds of plant species selected from barnyardgrass (Echinochloa crus-galli), kochia (Kochia scoparia), ragweed (common ragweed, Ambrosia elation), ryegrass, Italian (Italian ryegrass, Lolium multiflorum), foxtail, giant (giant foxtail, Setaria faberii), and pigweed (Amaranthus retroflexus), were planted into a blend of loam soil and sand and treated preemergence with a directed soil spray using test chemicals formulated in a non-phytotoxic solvent mixture which included a surfactant. At the same time, plants selected from these weed species and also blackgrass (Alopecurus myosuroides), galium (catchweed bedstraw, Galium aparine), wheat (Triticum aestivum), and corn (Zea mays) were planted in pots containing the same blend of loam soil and sand and treated with postemergence applications of test chemicals formulated in the same manner. Plants ranged in height from 2 to 10 cm and were in the one- to two-leaf stage for the postemergence treatment. Treated plants and untreated controls were maintained in a greenhouse for approximately 10 d, after which time all treated plants were compared to untreated controls and visually evaluated for injury. Plant response ratings, summarized in Table A, are based on a 0 to 100 scale where 0 is no effect and 100 is complete control. A dash (-) response means no test result.

[2] = test system: ryegrass, Italian (Italian ryegrass, Lolium multiflorum); assay: as above; conditions: approx. 10 d, 0 = no effect, 100 = complete control
From the text: as §1

[3] = test system: pigweed (Amaranthus retroflexus); assay: as above; conditions: approx. 10 d, 0 = no effect, 100 = complete control
From the text: as §1

[4] = test system: kochia (Kochia scoparia); assay: as above; conditions: approx. 10 d, 0 = no effect, 100 = complete control
From the text: as §1

[5] = test system: foxtail, giant (giant foxtail, Setaria faberii); assay: as above; conditions: approx. 10 d, 0 = no effect, 100 = complete control
From the text: as §1

[6] = test system: barnyardgrass (Echinochloa crus-galli); assay: as above; conditions: approx. 10 d, 0 = no effect, 100 = complete control
From the text: as §1

[7] = test system: ragweed (common ragweed, Ambrosia elation); assay: Test A postemergence application, visual injury rating; conditions: approx. 10 d, 0 = no effect, 100 = complete control
From the text: as §1

[8] = test system: ryegrass, Italian (Italian ryegrass, Lolium multiflorum); assay: as above; conditions: approx. 10 d, 0 = no effect, 100 = complete control
From the text: as §1

[9] = test system: pigweed (Amaranthus retroflexus); assay: as above; conditions: approx. 10 d, 0 = no effect, 100 = complete control
From the text: as §1

[10] = test system: kochia (Kochia scoparia); assay: as above; conditions: approx. 10 d, 0 = no effect, 100 = complete control
From the text: as §1

[11] = test system: blackgrass (Alopecurus myosuroides); assay: as above; conditions: approx. 10 d, 0 = no effect, 100 = complete control
From the text: as §1

[12] = test system: foxtail, giant (giant foxtail, Setaria faberii); assay: as above; conditions: approx. 10 d, 0 = no effect, 100 = complete control
From the text: as §1

[13] = test system: wheat (Triticum aestivum); assay: as above; conditions: approx. 10 d, 0 = no effect, 100 = complete control
From the text: as §1

[14] = test system: barnyardgrass (Echinochloa crus-galli); assay: as above; conditions: approx. 10 d, 0 = no effect, 100 = complete control
From the text: as §1

[15] = test system: galium (catchweed bedstraw, Galium aparine); assay: as above; conditions: approx. 10 d, 0 = no effect, 100 = complete control
From the text: as §1

[16] = test system: corn (Zea mays); assay: as above; conditions: approx. 10 d, 0 = no effect, 100 = complete control
From the text: as §1

[17] = test system: rice (Oryza sativa); assay: Test B flooded paddy test, visual plant response rating; conditions: 250 g ai/ha; applied to paddy water at 2-leaf stage; rated after 13 to 15 days; scale 0 to 100, 0 is no effect, 100 is complete control
From the text: (§2) At time of treatment, test pots were flooded to 3 cm above the soil surface, treated by application of test compounds directly to the paddy water, and then maintained at that water depth for the duration of the test. Treated plants and controls were maintained in a greenhouse for 13 to 15 days, after which time all species were compared to controls and visually evaluated. Plant response ratings, summarized in Table B, are based on a scale of 0 to 100 where 0 is no effect and 100 is complete control. A dash (-) response means no test result.

[18] = test system: sedge, umbrella (small-flower umbrella sedge, Cyperus difformis); assay: as above; conditions: 250 g ai/ha; applied to paddy water at 2-leaf stage; rated after 13 to 15 days; scale 0 to 100, 0 is no effect, 100 is complete control
From the text: as §2

[19] = test system: ducksalad (Heteranthera limosa); assay: as above; conditions: 250 g ai/ha; applied to paddy water at 2-leaf stage; rated after 13 to 15 days; scale 0 to 100, 0 is no effect, 100 is complete control
From the text: as §2

[20] = test system: barnyardgrass (Echinochloa crus-galli); assay: as above; conditions: 250 g ai/ha; applied to paddy water at 2-leaf stage; rated after 13 to 15 days; scale 0 to 100, 0 is no effect, 100 is complete control
From the text: as §2

SMILES | Ragweed plant response rating (0 to 100 scale) ([1]; 125 g ai/ha) | Ragweed plant response rating (0 to 100 scale) ([1]; 500 g ai/ha) | Ryegrass, Italian plant response rating (0 to 100 scale) ([2]; 125 g ai/ha) | Ryegrass, Italian plant response rating (0 to 100 scale) ([2]; 500 g ai/ha) | Pigweed plant response rating (0 to 100 scale) ([3]; 125 g ai/ha) | Pigweed plant response rating (0 to 100 scale) ([3]; 500 g ai/ha) | Kochia plant response rating (0 to 100 scale) ([4]; 125 g ai/ha) | Kochia plant response rating (0 to 100 scale) ([4]; 500 g ai/ha) | Foxtail, Giant plant response rating (0 to 100 scale) ([5]; 125 g ai/ha) | Foxtail, Giant plant response rating (0 to 100 scale) ([5]; 500 g ai/ha) | Barnyardgrass plant response rating (0 to 100 scale) ([6]; 125 g ai/ha) | Barnyardgrass plant response rating (0 to 100 scale) ([6]; 500 g ai/ha) | Ragweed plant response rating (0 to 100 scale) ([7]; 125 g ai/ha) | Ragweed plant response rating (0 to 100 scale) ([7]; 500 g ai/ha) | Ryegrass, Italian plant response rating (0 to 100 scale) ([8]; 125 g ai/ha) | Ryegrass, Italian plant response rating (0 to 100 scale) ([8]; 500 g ai/ha) | Pigweed plant response rating (0 to 100 scale) ([9]; 125 g ai/ha) | Pigweed plant response rating (0 to 100 scale) ([9]; 500 g ai/ha) | Kochia plant response rating (0 to 100 scale) ([10]; 125 g ai/ha) | Kochia plant response rating (0 to 100 scale) ([10]; 500 g ai/ha) | also measured
O=C(Nc1ccccc1F)C1C2=NCCCN2CC1c1cccc(C(F)(F)F)c1 (stereo not drawn) [Compound 1] | 0 | 0 | 0 | 0 | 0 | 0 | 0 | 0 | 0 | 60 | 0 | 70 | 0 | 0 | 0 | 0 | 0 | 0 | 0 | 0 | Blackgrass plant response rating (0 to 100 scale) ([11]; 125 g ai/ha): 0; Blackgrass plant response rating (0 to 100 scale) ([11]; 500 g ai/ha): 0; Foxtail, Giant plant response rating (0 to 100 scale) ([12]; 125 g ai/ha): 0; Foxtail, Giant plant response rating (0 to 100 scale) ([12]; 500 g ai/ha): 40; Wheat plant response rating (0 to 100 scale) ([13]; 125 g ai/ha): 0; Wheat plant response rating (0 to 100 scale) ([13]; 500 g ai/ha): 0; Barnyardgrass plant response rating (0 to 100 scale) ([14]; 125 g ai/ha): 0; Barnyardgrass plant response rating (0 to 100 scale) ([14]; 500 g ai/ha): 60; Galium plant response rating (0 to 100 scale) ([15]; 125 g ai/ha): 0; Galium plant response rating (0 to 100 scale) ([15]; 500 g ai/ha): 0; Corn plant response rating (0 to 100 scale) ([16]; 125 g ai/ha): 0; Corn plant response rating (0 to 100 scale) ([16]; 500 g ai/ha): 20; Plant response rating, Flood, Rice [17]: 0; Plant response rating, Flood, Sedge, Umbrella [18]: 50; Plant response rating, Flood, Ducksalad [19]: 70; Plant response rating, Flood, Barnyardgrass [20]: 0
CCCc1nnc2n1CC(c1ccc(C(F)(F)F)cc1)C2C(=O)Nc1cccc(F)c1F (stereo not drawn) [Compound 17] | 0 | 0 | 0 | 0 | 0 | 20 | 0 | 30 | 30 | 90 | 0 | 50 | 0 | 0 | 0 | 0 | 0 | 40 | 20 | 50 | Blackgrass plant response rating (0 to 100 scale) ([11]; 125 g ai/ha): 0; Blackgrass plant response rating (0 to 100 scale) ([11]; 500 g ai/ha): 20; Foxtail, Giant plant response rating (0 to 100 scale) ([12]; 125 g ai/ha): 0; Foxtail, Giant plant response rating (0 to 100 scale) ([12]; 500 g ai/ha): 30; Wheat plant response rating (0 to 100 scale) ([13]; 125 g ai/ha): 0; Wheat plant response rating (0 to 100 scale) ([13]; 500 g ai/ha): 0; Barnyardgrass plant response rating (0 to 100 scale) ([14]; 125 g ai/ha): 0; Barnyardgrass plant response rating (0 to 100 scale) ([14]; 500 g ai/ha): 30; Galium plant response rating (0 to 100 scale) ([15]; 125 g ai/ha): 40; Galium plant response rating (0 to 100 scale) ([15]; 500 g ai/ha): 50; Corn plant response rating (0 to 100 scale) ([16]; 125 g ai/ha): 0; Corn plant response rating (0 to 100 scale) ([16]; 500 g ai/ha): 0; Plant response rating, Flood, Rice [17]: 0; Plant response rating, Flood, Sedge, Umbrella [18]: 0; Plant response rating, Flood, Ducksalad [19]: 30; Plant response rating, Flood, Barnyardgrass [20]: 0
CCc1ccc(C2Cn3c(C)nnc3C2C(=O)Nc2cccc(F)c2F)cc1 (stereo not drawn) [Compound 23] | 0 | 0 | 0 | 0 | 0 | 20 | 20 | 40 | 70 | 90 | 60 | 90 | 0 | 0 | 0 | 0 | 0 | 0 | 30 | 30 | Blackgrass plant response rating (0 to 100 scale) ([11]; 125 g ai/ha): 0; Blackgrass plant response rating (0 to 100 scale) ([11]; 500 g ai/ha): 20; Foxtail, Giant plant response rating (0 to 100 scale) ([12]; 125 g ai/ha): 30; Foxtail, Giant plant response rating (0 to 100 scale) ([12]; 500 g ai/ha): 70; Wheat plant response rating (0 to 100 scale) ([13]; 125 g ai/ha): 0; Wheat plant response rating (0 to 100 scale) ([13]; 500 g ai/ha): 0; Barnyardgrass plant response rating (0 to 100 scale) ([14]; 125 g ai/ha): 50; Barnyardgrass plant response rating (0 to 100 scale) ([14]; 500 g ai/ha): 90; Galium plant response rating (0 to 100 scale) ([15]; 125 g ai/ha): 0; Galium plant response rating (0 to 100 scale) ([15]; 500 g ai/ha): 30; Corn plant response rating (0 to 100 scale) ([16]; 125 g ai/ha): 0; Corn plant response rating (0 to 100 scale) ([16]; 500 g ai/ha): 20; Plant response rating, Flood, Rice [17]: 0; Plant response rating, Flood, Sedge, Umbrella [18]: 0; Plant response rating, Flood, Ducksalad [19]: 80; Plant response rating, Flood, Barnyardgrass [20]: 0
Cc1ccc(C2Cn3c(C)nnc3C2C(=O)Nc2cccc(F)c2C)cc1C (stereo not drawn) [Compound 10] | 0 | 0 | 0 | 70 | 0 | 20 | 0 | 50 | 80 | 90 | 50 | 90 | 0 | 20 | 0 | 30 | 0 | 0 | 0 | 30 | Blackgrass plant response rating (0 to 100 scale) ([11]; 125 g ai/ha): 0; Blackgrass plant response rating (0 to 100 scale) ([11]; 500 g ai/ha): 70; Foxtail, Giant plant response rating (0 to 100 scale) ([12]; 125 g ai/ha): 30; Foxtail, Giant plant response rating (0 to 100 scale) ([12]; 500 g ai/ha): 80; Wheat plant response rating (0 to 100 scale) ([13]; 125 g ai/ha): 30; Wheat plant response rating (0 to 100 scale) ([13]; 500 g ai/ha): 30; Barnyardgrass plant response rating (0 to 100 scale) ([14]; 125 g ai/ha): 50; Barnyardgrass plant response rating (0 to 100 scale) ([14]; 500 g ai/ha): 90; Galium plant response rating (0 to 100 scale) ([15]; 125 g ai/ha): 0; Galium plant response rating (0 to 100 scale) ([15]; 500 g ai/ha): 50; Corn plant response rating (0 to 100 scale) ([16]; 125 g ai/ha): 20; Corn plant response rating (0 to 100 scale) ([16]; 500 g ai/ha): 40; Plant response rating, Flood, Rice [17]: 0; Plant response rating, Flood, Sedge, Umbrella [18]: 0; Plant response rating, Flood, Ducksalad [19]: 45; Plant response rating, Flood, Barnyardgrass [20]: 20
